Results from ChEMBL document CHEMBL1201862, “PubChem BioAssay data set” (2004).
Active and inactive are the calls of the source.

Columns and labels:
[1] = target: Voltage-gated inwardly rectifying potassium channel KCNH2 (Homo sapiens, UniProt Q12809); experiment: concentration-dependent hERG rescue from blockers – cell-based, thallium flux, dose response (AID 2121); type: ADME
[2] = target: T1, Sphingosine 1-phosphate receptor 2 (Homo sapiens, UniProt O95136); experiment: Dose Response Cell Based Assay for Agonists of the S1P2 Receptor of Purchased Analogues. [Related pubchem assays: 729, 843, 854, 736 ]; type: functional
[3] = target: T1, Sphingosine 1-phosphate receptor 2; experiment: Dose Response Cell Based Assay for Agonists of the S1P2 Receptor. [Related pubchem assays: 729, 736, 843 ]; type: functional
[4] = target: Serine/threonine-protein phosphatase PP1-alpha catalytic subunit (Homo sapiens, UniProt P62136); experiment: inhibition of protein phosphatase 1 activity – biochemical, fluorescence, dose response (AID 2394)
[5] = target: Serine/threonine-protein phosphatase (Homo sapiens, UniProt Q9BPW0); experiment: inhibition of protein phosphatase 5 activity – biochemical, fluorescence, dose response (AID 2395)
[6] = target: T2, Replicative DNA helicase DnaB (Mycobacterium tuberculosis, UniProt P9WMR3); experiment: DnaB intein splicing inhibitors, dose response, biochemical, cell-free fluorescence (AID 449749); type: functional
T2 sequence (P9WMR3 whole entry): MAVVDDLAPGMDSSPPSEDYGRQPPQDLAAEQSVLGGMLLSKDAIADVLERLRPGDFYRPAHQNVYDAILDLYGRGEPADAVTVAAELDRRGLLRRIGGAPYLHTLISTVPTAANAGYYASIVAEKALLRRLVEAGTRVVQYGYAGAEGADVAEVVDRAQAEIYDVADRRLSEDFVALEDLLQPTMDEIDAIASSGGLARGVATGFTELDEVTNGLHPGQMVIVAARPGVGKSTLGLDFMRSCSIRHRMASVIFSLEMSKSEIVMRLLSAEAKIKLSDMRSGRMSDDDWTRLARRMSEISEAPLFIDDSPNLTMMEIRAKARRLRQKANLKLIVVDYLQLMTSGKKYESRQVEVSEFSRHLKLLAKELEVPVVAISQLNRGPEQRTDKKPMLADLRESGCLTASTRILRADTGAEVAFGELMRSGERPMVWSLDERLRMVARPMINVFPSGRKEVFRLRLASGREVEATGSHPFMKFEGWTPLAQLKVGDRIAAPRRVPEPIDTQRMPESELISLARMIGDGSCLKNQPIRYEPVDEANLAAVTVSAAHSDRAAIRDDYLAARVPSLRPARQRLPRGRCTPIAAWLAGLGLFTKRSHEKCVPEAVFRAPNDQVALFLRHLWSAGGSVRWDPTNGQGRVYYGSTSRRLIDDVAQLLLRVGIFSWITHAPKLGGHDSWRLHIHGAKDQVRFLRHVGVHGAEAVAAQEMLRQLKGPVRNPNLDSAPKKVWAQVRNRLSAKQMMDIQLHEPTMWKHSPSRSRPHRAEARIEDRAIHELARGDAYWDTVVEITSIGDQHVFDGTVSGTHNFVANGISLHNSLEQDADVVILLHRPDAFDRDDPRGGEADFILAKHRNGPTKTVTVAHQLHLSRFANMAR

[7] = target: T3, Protein RecA (Mycobacterium tuberculosis, UniProt P9WHJ3); experiment: Fluorescence Cell-Free Homogeneous Dose Retest to Identify Inhibitors of RecA-Intein Splicing Activity. [Related pubchem assays (depositor defined):AID2097, AID2223, AID489010, AID492950]; type: functional
T3 sequence (P9WHJ3 whole entry): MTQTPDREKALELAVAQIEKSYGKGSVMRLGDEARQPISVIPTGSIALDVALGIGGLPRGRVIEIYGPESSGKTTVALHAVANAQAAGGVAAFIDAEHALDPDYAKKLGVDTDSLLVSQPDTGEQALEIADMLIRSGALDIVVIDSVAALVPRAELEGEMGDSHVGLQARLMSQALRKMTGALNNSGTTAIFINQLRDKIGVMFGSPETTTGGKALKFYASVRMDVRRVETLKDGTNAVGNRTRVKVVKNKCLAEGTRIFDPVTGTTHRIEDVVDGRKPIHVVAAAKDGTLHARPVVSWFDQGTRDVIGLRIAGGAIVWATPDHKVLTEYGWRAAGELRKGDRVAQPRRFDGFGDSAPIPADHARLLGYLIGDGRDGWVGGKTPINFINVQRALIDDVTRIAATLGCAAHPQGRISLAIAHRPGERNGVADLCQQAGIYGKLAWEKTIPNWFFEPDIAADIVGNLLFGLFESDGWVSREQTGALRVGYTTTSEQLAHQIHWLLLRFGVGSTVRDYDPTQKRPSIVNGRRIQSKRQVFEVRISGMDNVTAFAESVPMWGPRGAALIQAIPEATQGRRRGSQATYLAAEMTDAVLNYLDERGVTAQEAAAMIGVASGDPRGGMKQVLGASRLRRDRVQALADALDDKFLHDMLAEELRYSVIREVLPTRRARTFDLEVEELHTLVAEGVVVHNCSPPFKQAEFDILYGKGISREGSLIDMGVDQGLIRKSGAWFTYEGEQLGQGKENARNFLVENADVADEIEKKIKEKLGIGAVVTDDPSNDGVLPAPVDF

[8] = target: T4, Caspase-6 (Homo sapiens, UniProt P55212); experiment: inhibition of CASP6 peptide cleavage – biochemical, VEID-R110 fluorescence, cherry-pick, dose response (AID 720632)
T4 sequence (P55212 whole entry): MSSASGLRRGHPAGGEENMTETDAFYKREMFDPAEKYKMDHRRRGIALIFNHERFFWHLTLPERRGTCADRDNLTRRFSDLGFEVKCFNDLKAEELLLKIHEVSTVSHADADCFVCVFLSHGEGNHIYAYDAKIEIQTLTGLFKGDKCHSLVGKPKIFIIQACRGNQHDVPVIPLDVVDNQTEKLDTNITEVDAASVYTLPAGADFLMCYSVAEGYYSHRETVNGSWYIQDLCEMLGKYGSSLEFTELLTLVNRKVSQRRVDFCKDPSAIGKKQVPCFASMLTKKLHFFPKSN

[9] = target: T5, Tyrosyl-DNA phosphodiesterase 2 (Homo sapiens, UniProt O95551); experiment: potency against TDP2 phosphodiesterase activity – biochemical, epi absorbance, IC50, dose response (AID 743297)
T5 sequence (O95551 whole entry): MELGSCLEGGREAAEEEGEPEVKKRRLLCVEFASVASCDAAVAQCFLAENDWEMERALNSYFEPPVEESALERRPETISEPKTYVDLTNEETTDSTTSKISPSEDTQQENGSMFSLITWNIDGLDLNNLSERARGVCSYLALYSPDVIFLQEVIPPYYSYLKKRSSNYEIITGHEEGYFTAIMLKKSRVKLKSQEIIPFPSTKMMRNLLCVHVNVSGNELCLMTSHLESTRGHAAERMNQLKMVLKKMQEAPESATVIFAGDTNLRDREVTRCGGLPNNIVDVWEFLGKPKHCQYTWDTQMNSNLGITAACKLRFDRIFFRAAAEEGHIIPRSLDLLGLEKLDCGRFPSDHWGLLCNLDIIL

[10] = A High Throughput Confirmatory Assay used to Identify Novel Compounds that Inhibit Mycobacterium Tuberculosis in the absence of Glycerol.; type: functional
[11] = M. tuberculosis growth inhibition, HTS (AID 449762); type: functional
[12] = target: T6, Leucine aminopeptidase (Plasmodium falciparum 3D7, UniProt Q8IL11); experiment: P. falciparum M17LAP inhibitors, primary screen, biochemical, fluorogenic H-Leu-NHMec substrate, 1536-well (AID 1619); type: functional
T6 sequence (Q8IL11 whole entry): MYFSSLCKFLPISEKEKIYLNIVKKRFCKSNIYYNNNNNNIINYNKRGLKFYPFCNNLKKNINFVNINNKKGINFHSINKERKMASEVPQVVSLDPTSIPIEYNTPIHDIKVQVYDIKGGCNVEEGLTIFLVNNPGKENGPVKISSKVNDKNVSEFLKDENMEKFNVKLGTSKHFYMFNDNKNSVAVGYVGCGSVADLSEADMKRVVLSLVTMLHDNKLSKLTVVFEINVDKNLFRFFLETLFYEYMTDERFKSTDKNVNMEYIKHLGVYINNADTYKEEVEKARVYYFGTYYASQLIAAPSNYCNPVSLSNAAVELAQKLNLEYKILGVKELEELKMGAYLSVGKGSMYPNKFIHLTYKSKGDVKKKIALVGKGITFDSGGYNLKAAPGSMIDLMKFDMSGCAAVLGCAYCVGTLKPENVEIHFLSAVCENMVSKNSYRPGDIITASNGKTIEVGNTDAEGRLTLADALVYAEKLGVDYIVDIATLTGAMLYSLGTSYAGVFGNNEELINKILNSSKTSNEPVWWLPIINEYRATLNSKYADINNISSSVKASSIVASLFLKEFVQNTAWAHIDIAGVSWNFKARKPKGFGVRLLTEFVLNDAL

[13] = target: Aspartyl aminopeptidase (Plasmodium falciparum 3D7, UniProt Q8I2J3); experiment: Counterscreen for inhibitors of M1 and M17 aminopeptidases: QFRET-based biochemical high throughput dose response assay for inhibitors of the Plasmodium falciparum M18 Aspartyl Aminopeptidase (PFM18AAP). [Related PubChem assays: 1619 (Screening assay (M17LAP inhibitors).), 1445 (Screening assay (M1AAP inhibitors).)]
[14] = target: Procathepsin L (Homo sapiens, UniProt P07711); experiment: CTSL1 protease inhibition – biochemical, QFRET, 1536-well, counter-screen for M1/M17 aminopeptidase inhibitor project, dose response (AID 2214)
[15] = target: Complement C1s subcomponent (Homo sapiens, UniProt P09871); experiment: Complement C1s ELISA. [Related pubchem assays: 538, 787 ]; type: functional
[16] = target: T7, RNA-binding protein pos-1 (Caenorhabditis elegans, UniProt G5EF15); experiment: disruptors of C. elegans POS-1 RNA interaction – biochemical, fluorescence polarization, dose response (AID 1964);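 also: purified POS-1 fused to maltose binding protein made in E. coli; potency of compounds blocking POS-1 binding to fluorescent RNA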
T7 sequence (G5EF15 whole entry): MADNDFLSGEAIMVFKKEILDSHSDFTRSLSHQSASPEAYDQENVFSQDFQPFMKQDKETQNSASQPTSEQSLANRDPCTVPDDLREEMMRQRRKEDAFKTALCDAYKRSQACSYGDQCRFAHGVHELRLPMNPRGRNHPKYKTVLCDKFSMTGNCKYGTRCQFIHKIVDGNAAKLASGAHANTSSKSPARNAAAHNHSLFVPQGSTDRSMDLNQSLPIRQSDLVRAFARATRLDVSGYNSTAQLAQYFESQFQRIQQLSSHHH

[17] = tested on: Streptococcus sp. 'group A'; experiment: Streptococcus pyogenes SK(-)GAS viability under kanamycin – luminescence, BacTiterGlo, confirmation, counter-screen for streptokinase expression inhibitor project, dose response (AID 1900); type: functional, organism-based
[18] = target: T8, Zinc finger protein mex-5 (Caenorhabditis elegans, UniProt Q9XUB2); experiment: potency of MEX-5 RNA-binding blockers – biochemical, C. elegans, fluorescence polarization, dose response (AID 1960)
T8 sequence (Q9XUB2 whole entry): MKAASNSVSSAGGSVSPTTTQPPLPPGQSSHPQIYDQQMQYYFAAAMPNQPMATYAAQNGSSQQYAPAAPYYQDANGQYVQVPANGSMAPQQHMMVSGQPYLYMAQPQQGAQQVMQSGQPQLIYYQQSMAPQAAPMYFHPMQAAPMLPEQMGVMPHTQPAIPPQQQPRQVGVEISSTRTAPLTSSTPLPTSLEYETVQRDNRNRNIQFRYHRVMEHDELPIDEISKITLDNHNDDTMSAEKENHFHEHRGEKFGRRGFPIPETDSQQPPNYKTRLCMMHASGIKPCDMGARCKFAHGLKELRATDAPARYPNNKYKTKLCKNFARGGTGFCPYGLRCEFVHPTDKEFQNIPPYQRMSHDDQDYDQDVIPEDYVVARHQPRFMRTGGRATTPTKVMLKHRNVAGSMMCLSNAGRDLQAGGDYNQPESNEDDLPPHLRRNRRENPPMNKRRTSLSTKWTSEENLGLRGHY

[19] = target: T9, Streptokinase A (Streptococcus pyogenes serotype M1, UniProt P10520); experiment: viability-normalized secreted streptokinase activity reduction – plasminogen activation absorbance, OD405, dose response (AID 1914); type: functional, Streptococcus pyogenes M1 GAS;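 also: secreted streptokinase activity via plasminogen activation per viability signal from cell pellet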
T9 sequence (P10520 whole entry): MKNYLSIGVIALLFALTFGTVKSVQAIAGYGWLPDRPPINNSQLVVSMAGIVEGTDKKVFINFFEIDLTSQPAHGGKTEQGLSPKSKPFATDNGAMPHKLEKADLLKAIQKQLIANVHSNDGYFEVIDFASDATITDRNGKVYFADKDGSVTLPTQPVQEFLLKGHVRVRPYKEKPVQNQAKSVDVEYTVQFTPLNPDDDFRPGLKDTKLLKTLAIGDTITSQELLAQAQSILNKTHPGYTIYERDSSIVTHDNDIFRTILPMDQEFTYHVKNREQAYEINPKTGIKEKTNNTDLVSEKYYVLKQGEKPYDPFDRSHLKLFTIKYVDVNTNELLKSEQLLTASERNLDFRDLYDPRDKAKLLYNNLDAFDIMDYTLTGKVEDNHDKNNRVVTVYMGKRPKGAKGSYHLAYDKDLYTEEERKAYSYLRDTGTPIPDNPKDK

[20] = target: 14-3-3 protein gamma (Homo sapiens, UniProt P61981); experiment: modulators of 14-3-3 gamma client binding – dose response (AID 711); type: functional
[21] = tested on: Streptococcus; experiment: GAS UMAA2166 growth inhibition – luminescence, BacTiterGlo, counter-screen for streptokinase expression inhibitor project, dose response (AID 1915); type: functional, organism-based;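 also: potency for reduction of bacterial viability or growth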
[22] = target: Heat shock protein HSP 90-alpha (Homo sapiens, UniProt P07900); type: functional, organism-based

T1 sequence (O95136 whole entry): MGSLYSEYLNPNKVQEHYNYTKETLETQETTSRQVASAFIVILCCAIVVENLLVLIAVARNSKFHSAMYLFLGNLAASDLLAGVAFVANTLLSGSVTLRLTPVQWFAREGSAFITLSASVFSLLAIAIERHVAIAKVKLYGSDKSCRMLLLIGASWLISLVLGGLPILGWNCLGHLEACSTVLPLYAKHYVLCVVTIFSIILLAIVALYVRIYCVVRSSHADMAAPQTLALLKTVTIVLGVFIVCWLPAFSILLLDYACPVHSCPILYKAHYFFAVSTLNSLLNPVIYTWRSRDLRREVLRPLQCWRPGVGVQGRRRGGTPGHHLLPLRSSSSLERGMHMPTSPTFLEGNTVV
Chain of Complement C1s subcomponent (P09871 16-437 limits assumed): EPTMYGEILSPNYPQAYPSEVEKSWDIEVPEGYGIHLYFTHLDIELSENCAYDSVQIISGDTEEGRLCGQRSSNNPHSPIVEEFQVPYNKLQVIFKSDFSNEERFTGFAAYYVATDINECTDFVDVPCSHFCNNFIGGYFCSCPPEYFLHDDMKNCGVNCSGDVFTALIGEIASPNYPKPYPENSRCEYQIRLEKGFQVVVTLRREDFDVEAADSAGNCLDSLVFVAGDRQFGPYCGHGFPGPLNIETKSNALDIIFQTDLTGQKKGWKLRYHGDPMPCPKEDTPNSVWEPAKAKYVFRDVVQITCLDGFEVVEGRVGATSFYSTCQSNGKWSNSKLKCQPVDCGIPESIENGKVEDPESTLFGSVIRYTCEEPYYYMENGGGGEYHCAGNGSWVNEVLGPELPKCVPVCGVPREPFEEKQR
Chain of Complement C1s subcomponent (P09871 438-688 limits assumed): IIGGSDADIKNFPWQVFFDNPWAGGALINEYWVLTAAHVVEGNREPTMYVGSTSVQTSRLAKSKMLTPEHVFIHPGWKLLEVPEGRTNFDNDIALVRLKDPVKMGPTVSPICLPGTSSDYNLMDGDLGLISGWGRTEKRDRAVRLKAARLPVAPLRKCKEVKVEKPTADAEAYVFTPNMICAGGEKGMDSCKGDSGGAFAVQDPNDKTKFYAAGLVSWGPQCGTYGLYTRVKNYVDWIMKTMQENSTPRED
Chain of Voltage-gated inwardly rectifying potassium channel KCNH2 (Q12809 whole entry): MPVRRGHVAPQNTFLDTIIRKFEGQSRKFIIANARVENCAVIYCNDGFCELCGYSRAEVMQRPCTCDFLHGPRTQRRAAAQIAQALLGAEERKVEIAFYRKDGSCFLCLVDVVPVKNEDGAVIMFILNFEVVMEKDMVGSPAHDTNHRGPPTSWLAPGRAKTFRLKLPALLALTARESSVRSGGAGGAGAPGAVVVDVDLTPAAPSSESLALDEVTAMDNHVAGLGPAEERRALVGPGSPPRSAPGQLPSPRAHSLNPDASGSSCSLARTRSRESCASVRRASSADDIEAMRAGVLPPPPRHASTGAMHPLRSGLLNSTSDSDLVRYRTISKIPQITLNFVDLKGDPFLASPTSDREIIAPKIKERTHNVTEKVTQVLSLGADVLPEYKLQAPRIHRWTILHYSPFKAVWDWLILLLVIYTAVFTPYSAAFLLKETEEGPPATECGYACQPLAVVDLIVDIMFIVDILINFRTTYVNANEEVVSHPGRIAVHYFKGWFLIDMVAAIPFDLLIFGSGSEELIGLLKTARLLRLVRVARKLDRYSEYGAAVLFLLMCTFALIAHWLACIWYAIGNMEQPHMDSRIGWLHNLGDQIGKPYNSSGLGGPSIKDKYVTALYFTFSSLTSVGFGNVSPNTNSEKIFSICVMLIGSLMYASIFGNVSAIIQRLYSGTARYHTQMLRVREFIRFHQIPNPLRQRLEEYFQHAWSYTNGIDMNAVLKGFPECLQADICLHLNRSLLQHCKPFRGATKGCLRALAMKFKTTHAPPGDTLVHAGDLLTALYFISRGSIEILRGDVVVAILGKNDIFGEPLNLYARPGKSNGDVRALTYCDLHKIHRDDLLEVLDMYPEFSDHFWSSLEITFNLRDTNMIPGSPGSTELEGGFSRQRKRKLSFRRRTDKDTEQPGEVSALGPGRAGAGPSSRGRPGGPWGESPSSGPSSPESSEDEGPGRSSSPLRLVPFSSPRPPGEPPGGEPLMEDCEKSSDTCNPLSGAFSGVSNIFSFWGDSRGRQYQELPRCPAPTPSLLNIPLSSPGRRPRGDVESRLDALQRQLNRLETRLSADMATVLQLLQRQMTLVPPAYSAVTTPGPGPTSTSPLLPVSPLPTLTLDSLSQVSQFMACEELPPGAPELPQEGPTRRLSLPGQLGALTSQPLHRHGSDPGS
Chain of Serine/threonine-protein phosphatase (Q9BPW0 whole entry): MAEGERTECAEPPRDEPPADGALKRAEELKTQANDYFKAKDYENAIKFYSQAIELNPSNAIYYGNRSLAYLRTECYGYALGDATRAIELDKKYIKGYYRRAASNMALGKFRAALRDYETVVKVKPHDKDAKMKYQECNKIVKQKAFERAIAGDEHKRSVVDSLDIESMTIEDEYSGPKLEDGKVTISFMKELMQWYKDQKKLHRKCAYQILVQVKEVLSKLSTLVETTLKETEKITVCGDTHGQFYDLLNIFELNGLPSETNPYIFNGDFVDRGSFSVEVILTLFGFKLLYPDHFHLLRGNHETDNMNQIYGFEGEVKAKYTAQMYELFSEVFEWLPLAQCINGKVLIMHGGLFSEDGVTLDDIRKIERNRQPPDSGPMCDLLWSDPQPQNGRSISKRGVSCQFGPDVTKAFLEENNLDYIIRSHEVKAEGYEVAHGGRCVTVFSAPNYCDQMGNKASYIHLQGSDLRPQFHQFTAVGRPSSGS
Chain of Aspartyl aminopeptidase (Q8I2J3 whole entry): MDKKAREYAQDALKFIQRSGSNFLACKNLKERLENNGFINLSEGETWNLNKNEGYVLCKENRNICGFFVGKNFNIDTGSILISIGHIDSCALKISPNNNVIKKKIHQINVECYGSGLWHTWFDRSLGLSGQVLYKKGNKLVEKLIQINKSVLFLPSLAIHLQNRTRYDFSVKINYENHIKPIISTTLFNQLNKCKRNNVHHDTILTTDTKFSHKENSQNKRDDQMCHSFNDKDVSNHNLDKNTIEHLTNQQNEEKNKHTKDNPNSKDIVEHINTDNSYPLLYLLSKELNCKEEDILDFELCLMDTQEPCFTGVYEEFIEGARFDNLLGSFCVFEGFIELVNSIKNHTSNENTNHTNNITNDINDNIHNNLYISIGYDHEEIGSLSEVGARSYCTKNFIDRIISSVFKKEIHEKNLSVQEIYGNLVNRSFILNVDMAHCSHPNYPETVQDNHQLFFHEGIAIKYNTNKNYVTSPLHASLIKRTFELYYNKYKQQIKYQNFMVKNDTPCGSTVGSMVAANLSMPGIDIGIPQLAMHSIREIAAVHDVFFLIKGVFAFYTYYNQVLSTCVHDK
Chain of Procathepsin L (P07711 whole entry): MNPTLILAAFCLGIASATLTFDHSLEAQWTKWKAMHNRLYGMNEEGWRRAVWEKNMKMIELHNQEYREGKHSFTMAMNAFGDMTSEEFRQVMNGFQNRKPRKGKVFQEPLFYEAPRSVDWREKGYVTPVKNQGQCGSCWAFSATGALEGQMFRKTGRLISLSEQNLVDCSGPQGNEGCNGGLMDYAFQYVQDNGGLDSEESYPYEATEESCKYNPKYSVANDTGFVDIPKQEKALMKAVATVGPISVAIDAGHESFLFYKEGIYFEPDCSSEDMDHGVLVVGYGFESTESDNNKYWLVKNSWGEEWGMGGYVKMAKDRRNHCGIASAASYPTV
Chain of Serine/threonine-protein phosphatase PP1-alpha catalytic subunit (P62136 whole entry): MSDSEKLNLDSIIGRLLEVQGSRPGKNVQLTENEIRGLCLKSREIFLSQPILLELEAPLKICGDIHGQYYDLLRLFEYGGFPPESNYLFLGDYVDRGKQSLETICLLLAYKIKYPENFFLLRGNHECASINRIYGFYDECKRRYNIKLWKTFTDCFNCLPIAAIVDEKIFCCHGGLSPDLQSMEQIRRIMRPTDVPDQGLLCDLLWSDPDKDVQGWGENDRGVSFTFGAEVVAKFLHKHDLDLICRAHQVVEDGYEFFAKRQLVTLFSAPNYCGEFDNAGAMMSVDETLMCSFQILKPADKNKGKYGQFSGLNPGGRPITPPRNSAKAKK
Chain of 14-3-3 protein gamma (P61981 whole entry): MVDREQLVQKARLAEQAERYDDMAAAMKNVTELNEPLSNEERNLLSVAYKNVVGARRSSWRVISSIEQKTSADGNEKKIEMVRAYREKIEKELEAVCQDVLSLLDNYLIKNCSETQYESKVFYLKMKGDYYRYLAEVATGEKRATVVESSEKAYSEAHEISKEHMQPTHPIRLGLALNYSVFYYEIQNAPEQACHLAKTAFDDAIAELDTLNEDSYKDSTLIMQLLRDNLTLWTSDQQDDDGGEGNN

In the case of CCN=C(S)N=NC1=C(O)c2cccc3cccc1c23, the EC50 [1] is reported as 0.26 µM (active).

For Cc1cc(C(=O)CN2C(=O)CCC2=O)c(C)n1Cc1ccccc1, the EC50 [2] was 1.2 µM (active) and the EC50 [3] was 2.85 µM (active).

For Oc1nc(Nc2ccccc2)cc2cc(Br)ccc12, the IC50 [4] was 46.9 µM (not active), the IC50 [5] was > 67 µM (not active) and the AC50 [6] was > 120 µM (inactive). The EC50 [7] was 7 µM (active), the AC50 [8] was 6.04 µM (active) and the IC50 [9] was 32.2 µM (inactive).

For Cc1nnc(SCc2ccccc2Cl)n(N)c1=O, the IC50 [10] was > 100 µM (active).

For Cc1nc2ccc(NC(=O)N(C(C)C)C(C)C)cc2s1, the IC50 [11] was > 100 µM (active).

With Cc1ccc(SCC2=NNC(=O)C2)cc1 the IC50 [12] was 1.77 µM (active), the IC50 [13] was > 73.5 µM (not active) and the IC50 [14] was > 59.6 µM (not active). For the same compound, the AC50 [6] was 3.72 µM (active) and the EC50 [7] was 1.01 µM (active).

In the case of O=c1oc(-c2ccco2)nc2ccccc12, the IC50 [15] is reported as > 50 µM (not active).

For Nc1nonc1C(=O)NCC/N=C/c1cc(Cc2ccccc2)cc(Br)c1O, the EC50 [16] was > 300 µM (not active), the EC50 [17] was 5.35 µM (active) and the EC50 [18] was > 300 µM (not active). The EC50 [19] was > 150 µM (not active), the IC50 [20] was > 50 µM (not active) and the EC50 [21] was 9.66 µM (active). The AC50 [22] was 1.24 µM (active).
